Measurements: patent US11406628B2, “Sustained-release triptan compositions and method of use the same through subdermal route or the like” (Taiwan Liposome Co., Ltd, priority 2017, dated 2022)
Where two headings read alike, the source gives them in different places.

What was measured:
patients = conditions: within 24 hours or 48 hours of initial symptom resolution; cited from earlier work
[1] = human, cited from earlier work
[2] = female rats, cited from earlier work; for Cmax/dose: normalization using sumatriptan succinate dosage
[3] = Pharmacokinetic study of liposomal sumatriptan in rats after single subcutaneous administration
Procedure: Jugular vein cannulated (JVC) female Sprague-Dawley rats (7-9 weeks) were used for a pharmacokinetic (PK) study. The rats were housed in a holding room which operates on a 12-hour light/12-hour dark circadian cycle with free access (ad libitum) to water and food.
Blood samples were collected at 2, 4, 8, 24, 48 and 72 hours post-injection. Plasma samples were obtained by centrifugation and then dimethyl sulfoxide was added to the plasma samples at a final concentration of 5% (v/v) for storing the samples at −80° C. until analysis. One-hundred microliters of each sample were subject to separation of sumatriptan by a Strata C18-E tube to obtain the sumatriptan fraction and sumatriptan concentration was determined employing LC-MS/MS methods.
The unformulated sumatriptan injection was prepared by dissolving the sumatriptan tartrate in ultrapure water at 2 mg/mL. The in vivo PK profiles of the rats (n=3) administrated with unformulated sumatriptan following subcutaneous injection at the dosage of 3 mg/kg of sumatriptan tartrate were compared to the PK profiles of the rats administered 10 mg/kg of sumatriptan from the liposomal sumatriptan formulation. Blood samples were collected at 15 mins, 0.5, 1, 2, 4, 6 and 8 hours post-injection. Plasma samples were obtained by centrifugation and were kept frozen at −80° C. until analysis.
FIG. 1 depicts the mean sumatriptan concentration versus time curve over 72 hours post-injection. Table 2 provides a summary of the PK parameters which were obtained using a noncompartmental model within the PKSolver program.

[4] = unformulated 3 mg/kg, liposomal 10 mg/kg

Molecule: CNS(=O)(=O)Cc1ccc2[nH]cc(CCN(C)C)c2c1 [sumatriptan]
- migraine recurrence rate (patients): about 40%
- half-life (t1/2) ([1]; 6 mg subcutaneous injection): 2 h
- half-life (t1/2) ([1]; 20 mg intranasal administration): 1.8 h
- half-life (t1/2) ([1]; 100 mg oral tablet): 2 h
- half-life (t1/2) ([1]; irrespective of route of administration): approximately 2 hours
- time to reach maximum plasma concentration ([1]; subcutaneous injection): approximately 10 minutes
- t1/2 ([2]; intranasal administration): 3.6 h
- Cmax/dose ([2]; intranasal): 25 ng/mL
- t1/2 ([2]; intravenous administration): 1.1 h
- Cmax/dose ([2]; intravenous): 508.6 ng/mL

Molecule: sumatriptan tartrate [Unformulated Sumatriptan]
- AUC0-t/dose ([3]; dose-normalized): 226.9
- Cmax/dose ([3]; dose-normalized): 138
- AUC0-inf [3, 4]: 687.4 ng·h/mL
- AUC0-t [3, 4]: 680.6 ng·h/mL
- Cmax [3, 4]: 414 ng/mL
- t1/2 [3, 4]: 1.1 h
